Measured values taken from patent US9512130B2, “Substituted imidazopyridazines” (BAYER PHARMA AKTIENGESELLSCHAFT, priority 2013, dated 2016).

Experiments:
[1] = system: spindle assembly checkpoint (Mps-1) in HeLa cells; assay: cells; type: cell-based; conditions: Homo sapiens; HeLa cells arrested with nocodazole, 4 h with test compound, phospho-histone H3 (Ser10) readout; read-out: SAC
Text: Spindle Assembly Checkpoint Assay
The spindle assembly checkpoint assures the proper segregation of chromosomes during mitosis. Upon entry into mitosis, chromosomes begin to condensate which is accompanied by the phosphorylation of histone H3 on serine 10. Dephosphorylation of histone H3 on serine 10 begins in anaphase and ends at early telophase. Accordingly, phosphorylation of histone H3 on serine 10 can be utilized as a marker of cells in mitosis. Nocodazole is a microtubule destabilizing substance. Thus, nocodazole interferes with microtubule dynamics and mobilises the spindle assembly checkpoint. […] An inhibition of the spindle assembly checkpoint by Mps-1 inhibitors overrides the mitotic blockage in the presence of nocodazole, and the cells complete mitosis prematurely. This alteration is detected by the decrease of cells with phosphorylation of histone H3 on serine 10. This decline is used as a marker to determine the capability of compounds of the present invention to induce a mitotic breakthrough.
Cultivated cells of the human cervical tumour cell line HeLa (ATCC CCL-2) were plated at a density of 2500 cells/well in a 384-well microtiter plate in 20 μl Dulbeco's Medium (w/o phenol red, w/o sodium pyruvate, w 1000 mg/ml glucose, w pyridoxine) supplemented with 1% (v/v) glutamine, 1% (v/v) penicillin, 1% (v/v) streptomycin and 10% (v/v) fetal calf serum. After incubation overnight at 37° C., 10 μl/well nocodazole at a final concentration of 0.1 μg/ml were added to cells. After 24 h incubation, cells were arrested at G2/M phase of the cell cycle progression. […] Images were acquired with a Perkin Elmer OPERA™ High-Content Analysis reader. Images were analyzed with image analysis software MetaXpress™ from Molecular devices utilizing the Cell Cycle application module. […] The raw assay data were further analysed by four parameter logistic regression analysis to determine the IC50 value for each tested compound.

human CYP3A4 [2] = target: T1, human CYP3A4 (Homo sapiens (Human), UniProt P08684); assay: Determination of inhibitory potential on human CYP3A4; type: in vitro ADME; conditions: human liver microsomes, midazolam as probe substrate
Experimental: Determination of Inhibitory Potential on Human CYP3A4
The potential of the test compound to act as a competitive inhibitor of CYP3A4 was evaluated in in vitro assays, using human liver microsomes and the reference substrate midazolam. The test compound was solved in acetonitrile. Human liver microsomal preparation (pool of HLM) was applied for the assay. A stock solution of the test compound was added to phosphate buffer containing EDTA, NADP, glucose 6-phosphate, and glucose 6-phosphate dehydrogenase. This mixture was sequentially diluted on a Genesis Workstation (Tecan, Crailsheim, FRG). After pre-warming, reaction was initiated by addition of a mixture of probe substrate (midazolam). […] The reference samples (substrate, but no inhibitor) were incubated in parallel in sextuple and contained the same amount of solvent as the test incubations. Reactions were stopped by addition of 100 μL acetonitrile containing the internal standard. Precipitated proteins were removed by centrifugation of the well plate, supernatants were analyzed by LC-MS/MS.
The CYP3A4-mediated metabolic activity in the presence of the test compounds was expressed as percentages of the corresponding reference value. A sigmoid-shaped curve was fitted to the data to calculate the enzyme inhibition parameter IC50 using a nonlinear least-squares regression analysis of the plot of percent control activity versus concentration of the test inhibitor.

human CYP3A4 [3] = target: T1, human CYP3A4; assay: Determination of mechanism-based inhibition of human CYP3A4; type: in vitro ADME; conditions: irreversible CYP3A4 inactivation; inactivator molecules metabolized per CYP3A4 molecule inactivated; testosterone substrate
Experimental: Determination of Mechanism-Based Inhibition of Human CYP3A4
The test compound was incubated at 37° C. in a concentration-NADPH-, and time-dependent setting. Therefore, the test compound was incubated at 4 different concentrations (e.g.: 1, 2, 5, 10 μM) in the presence of NADPH ([…]) and regenerating system in phosphate-buffered saline ([…], pH 7.4) The highest concentration of test compound was incubated without NADPH and therefore served as the NADPH-deficient control. In addition, acetonitrile as a vehicle control (negative control) and mibefradil as positive control for irreversible CYP3A4 inactivation were also included using identical assay conditions.
Each mixture was incubated with the enzyme (preincubation) for up to 50 minutes.
Afterwards, the reaction in the main incubation was stopped by the addition of acetonitrile (containing an internal standard), the protein was allowed to precipitate by placing the mixture into an ice bath. Subsequently, the mixture was centrifuged to pelletize the protein and the supernatants were analyzed by HPLC-MS for the isoform specific metabolite e.g. […] and the remaining amount of the test compound.
In parallel the turnover of the substrate was plotted against the preincubation time.

[4] = In vitro metabolic stability in rat hepatocytes; type: in vitro ADME; conditions: maximal oral bioavailability calculated from half-life in Han Wistar rat hepatocytes, 1 μM test compound
Experimental: Investigation of In Vitro Metabolic Stability in Rat Hepatocytes (Including Calculation of Hepatic In Vivo Blood Clearance (CL)) Hepatocytes from Han Wistar rats were isolated via a 2-step perfusion method. After perfusion, the liver was carefully removed from the rat: the liver capsule was opened and the hepatocytes were gently shaken out into a Petri dish with ice-cold WME. The resulting cell suspension was filtered through sterile gaze in 50 ml falcon tubes and centrifuged at 50×g for 3 min at room temperature. The cell pellet was resuspended in 30 ml WME and centrifuged through a Percoll® gradient for 2 times at 100×g. The hepatocytes were washed again with Williams' medium E (WME) and resuspended in medium containing 5% FCS. Cell viability was determined by trypan blue exclusion. For the metabolic stability assay liver cells were distributed in WME containing 5% FCS to glass vials at a density of 1.0×10^6 vital cells/mL. […] During incubation, the hepatocyte suspensions were continuously shaken and aliquots were taken at 2, 8, 16, 30, 45 and 90 min, to which equal volumes of cold methanol were immediately added. Samples were frozen at −20° C. over night, after subsequently centrifuged for 15 minutes at 3000 rpm and the supernatant was analyzed with an Agilent 1200 HPLC-system with LCMS/MS detection. The half-life of a test compound was determined from the concentration-time plot. From the half-life the intrinsic clearances were calculated. Together with the additional parameters liver blood flow, amount of liver cells in vivo and in vitro. The hepatic in vivo blood clearance (CL) and the maximal oral bioavailability (Fmax) was calculated. The following parameter values were used: Liver blood flow—4.2 L/h/kg rat; specific liver weight—32 g/kg rat body weight; liver cells in vivo—1.1×10^8 cells/g liver, liver cells in vitro—0.5×10^6/ml.

HeLa cells = assay: Proliferation Assay with HeLa cells; type: cell-based; conditions: Homo sapiens, 96 h, 4 days incubation, crystal violet staining
Experimental: After 24 hours, the cells of one plate (zero-point plate) were stained with crystal violet (see below), while the medium of the other plates was replaced by fresh culture medium (200 μl), to which the test substances were added in various concentrations (0 μM, as well as in the range of 0.01-30 μM; the final concentration of the solvent dimethyl sulfoxide was 0.5%). The cells were incubated for 4 days in the presence of test substances. […] After three washing cycles of the fixed cells with water, the plates were dried at room temperature. The cells were stained by adding 100 μl/measuring point of a 0.1% crystal violet solution (pH 3.0). After three washing cycles of the stained cells with water, the plates were dried at room temperature. The dye was dissolved by adding 100 μl/measuring point of a 10% acetic acid solution. The extinction was determined by photometry at a wavelength of 595 nm. The change of cell number, in percent, was calculated by normalization of the measured values to the extinction values of the zero-point plate (=0%) and the extinction of the untreated (0 μm) cells (=100%). The IC50 values were determined by means of a 4 parameter fit using the company's own software.

T1 sequence (P08684 whole entry): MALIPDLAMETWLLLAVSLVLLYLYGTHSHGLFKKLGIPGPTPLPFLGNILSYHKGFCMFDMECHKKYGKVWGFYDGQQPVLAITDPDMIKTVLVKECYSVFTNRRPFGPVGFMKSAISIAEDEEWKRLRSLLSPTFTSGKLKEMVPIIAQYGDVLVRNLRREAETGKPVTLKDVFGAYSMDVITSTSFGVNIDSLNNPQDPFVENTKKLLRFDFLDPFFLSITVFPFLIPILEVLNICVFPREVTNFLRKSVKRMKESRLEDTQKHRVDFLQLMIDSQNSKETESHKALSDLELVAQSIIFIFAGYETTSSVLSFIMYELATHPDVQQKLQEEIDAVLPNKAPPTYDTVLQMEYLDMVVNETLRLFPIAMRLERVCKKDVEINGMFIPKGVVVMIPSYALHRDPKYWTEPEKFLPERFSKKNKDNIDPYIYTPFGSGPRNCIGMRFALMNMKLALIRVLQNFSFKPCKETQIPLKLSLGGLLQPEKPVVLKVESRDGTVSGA

| SMILES | IC50 [1] [nM] | IC50 (human CYP3A4 [2]) [µM] | CYP3A4 partition ratio (human CYP3A4 [3]) | Fmax rat hep [4] [%] | IC50 (HeLa cells) [nM] |
| --- | --- | --- | --- | --- | --- |
| COc1ccc(Oc2cc(NCC3COC3)c3ncc(-c4ccc(C(=O)NC5CC5)c(C)c4)n3n2)cc1F [Example 1, N-cyclopropyl-4-{6-(3-fluoro-4-methoxyphenoxy)-8-[(oxetan-3-ylmethyl)amino]imidazo[1,2-b]pyridazin-3-yl}-2-methylbenzamide] | 0.97 | > 5 | 105 | 44 | 2.9 |
| COc1ccc(Oc2cc(NCCC(F)(F)F)c3ncc(-c4ccc(C(=O)NC5CC5)c(C)c4)n3n2)c(F)c1F [Example 2, N-cyclopropyl-4-{6-(2,3-difluoro-4-methoxyphenoxy)-8-[(3,3,3-trifluoropropyl)amino]imidazo[1,2-b]pyridazin-3-yl}-2-methylbenzamide] |  |  |  | 72 | 7.8 |
| COc1ccc(Oc2cc(NCC3CCOCC3)c3ncc(-c4ccc(C(=O)NC5CC5)c(C)c4)n3n2)c(F)c1F [Example 3, N-cyclopropyl-4-{6-(2,3-difluoro-4-methoxyphenoxy)-8-[(tetrahydro-2H-pyran-4-ylmethyl)amino]imidazo[1,2-b]pyridazin-3-yl}-2-methylbenzamide] | 0.08 | > 10 | 33 | 39 | 18.1 |
| Cc1cc(-c2cnc3c(NCCC(F)(F)F)cc(Oc4cccc(F)c4)nn23)ccc1C(=O)NC1CC1 [Ref., N-cyclopropyl-4-{6-(3-fluorophenoxy)-8-[(3,3,3-trifluoropropyl)amino]imidazo[1,2-b]pyridazin-3-yl}-2-methylbenzamide, reference compound] | 0.52 | > 10 | 3 | 38 | 23 |
